The record followed here is article PMC3509056 (The FASEB Journal, 2012).

In test [1] the target is T1, hFFA2 (Homo sapiens, UniProt O15552).
T1 sequence (O15552 1-330): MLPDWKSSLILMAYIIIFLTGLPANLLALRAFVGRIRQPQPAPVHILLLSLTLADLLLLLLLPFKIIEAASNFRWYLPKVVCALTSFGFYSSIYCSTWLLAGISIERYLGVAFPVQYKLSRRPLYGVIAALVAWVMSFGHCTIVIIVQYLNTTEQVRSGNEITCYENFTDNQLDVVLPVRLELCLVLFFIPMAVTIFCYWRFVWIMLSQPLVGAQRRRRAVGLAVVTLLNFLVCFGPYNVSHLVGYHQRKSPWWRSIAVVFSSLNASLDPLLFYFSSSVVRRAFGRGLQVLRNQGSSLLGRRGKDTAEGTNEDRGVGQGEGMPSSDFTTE
Kind of test: beta-arrestin-2 BRET recruitment. It is filed as cell-based.

In test [2] the target is T2, bFFA3 (Bos taurus, UniProt A0ACM8QIV1).
T2 sequence (A0ACM8QIV1 1-326): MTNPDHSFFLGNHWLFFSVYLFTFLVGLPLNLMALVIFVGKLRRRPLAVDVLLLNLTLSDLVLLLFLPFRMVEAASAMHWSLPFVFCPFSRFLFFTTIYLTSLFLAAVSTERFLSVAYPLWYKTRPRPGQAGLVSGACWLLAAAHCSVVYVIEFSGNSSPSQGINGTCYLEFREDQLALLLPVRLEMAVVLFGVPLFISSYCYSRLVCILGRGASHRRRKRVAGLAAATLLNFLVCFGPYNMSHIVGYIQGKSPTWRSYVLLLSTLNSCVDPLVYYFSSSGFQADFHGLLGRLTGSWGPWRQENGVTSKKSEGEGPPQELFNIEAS
Nature of the test: […]GTPγS incorporation, membranes. It is filed as biochemical.

Test [3] has as its target T3, hFFA3 (Homo sapiens, UniProt O14843).
T3 sequence (O14843 1-346): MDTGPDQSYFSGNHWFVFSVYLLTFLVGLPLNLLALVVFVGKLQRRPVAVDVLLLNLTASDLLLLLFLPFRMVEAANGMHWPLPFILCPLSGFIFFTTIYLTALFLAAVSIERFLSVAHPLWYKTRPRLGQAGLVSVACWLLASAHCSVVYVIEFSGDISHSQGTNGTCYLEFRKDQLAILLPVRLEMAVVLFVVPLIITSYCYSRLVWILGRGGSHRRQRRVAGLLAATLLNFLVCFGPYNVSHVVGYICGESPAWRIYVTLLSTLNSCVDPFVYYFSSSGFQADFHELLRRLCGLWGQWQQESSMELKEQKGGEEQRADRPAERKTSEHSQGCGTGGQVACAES
Kind of test: […]GTPγS incorporation, membranes. It is filed as biochemical.

The target of test [4] is T4, bFFA2 (Bos taurus, UniProt A0ACM8QIU6).
T4 sequence (A0ACM8QIU6 1-329): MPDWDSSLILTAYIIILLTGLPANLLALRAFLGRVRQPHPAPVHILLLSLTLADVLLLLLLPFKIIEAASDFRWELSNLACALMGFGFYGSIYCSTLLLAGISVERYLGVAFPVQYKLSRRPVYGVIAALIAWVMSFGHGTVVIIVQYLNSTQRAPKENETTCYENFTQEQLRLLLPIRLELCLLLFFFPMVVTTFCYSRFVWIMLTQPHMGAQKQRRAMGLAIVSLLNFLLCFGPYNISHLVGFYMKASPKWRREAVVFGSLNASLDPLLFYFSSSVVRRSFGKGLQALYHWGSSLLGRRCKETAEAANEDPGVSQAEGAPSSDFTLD
Nature of the test: beta-arrestin-2 BRET recruitment. It is filed as cell-based. In general terms: BRET reads energy transfer from a luciferase to a nearby fluorophore.

The target of test [5] is T5, hFFA2 (Homo sapiens, UniProt O15552, C141G).
T5 sequence (O15552 1-330 C141G): T1 sequence (O15552 1-330) with C141G
Kind of test: beta-arrestin-2 BRET recruitment. It is filed as cell-based.

Test [6] concerns the target T6, hFFA2 (Homo sapiens, UniProt O15552, C141G/H242Q).
T6 sequence (O15552 1-330 C141G/H242Q): T1 sequence (O15552 1-330) with C141G, H242Q
Kind of test: […]GTPγS incorporation, membranes. It is filed as biochemical.

Numbering of substitutions follows the chain as printed.

For the compound `O=CO` [C1, formic acid], the EC50 in test [1] is 2510 µM; in test [2], greater than 10000 µM; in test [3] it was greater than 10000 µM; in test [4], greater than 10000 µM.

Take `CC(=O)O` [C2, acetic acid]: the EC50 was 1000 µM in test [1], 4370 µM in test [2], 7590 µM in test [3] and 2040 µM in test [4].

As for `CCC(=O)O` [C3, propionic acid], the EC50 in test [2] is 155 µM; in test [3], 200 µM; in test [4], 347 ± 7.01 µM.

Take `CCCC(=O)O` [C4, butyric acid]: the EC50 in test [1] is 1480 µM; in test [2], 263 µM; in test [3] it was 251 µM; in test [4] it was 69.2 µM.

Regarding `CCCCC(=O)O` [C5, valeric acid], the EC50 in test [1] is 7080 µM; in test [2] it was 123 µM; in test [3] it was 36.3 µM; in test [4], 42.7 µM.

Consider `CCCCCC(=O)O` [C6, caproic acid], for which the EC50 in test [5] is 24 µM; in test [1], greater than 10000 µM; in test [2] it was 126 µM; in test [3] it was 204 µM; in test [4], 20.9 µM.

As for `CCCCCCC(=O)O` [C7, heptanoic acid], the half-maximal effective concentration (EC50) was 105 µM in test [5]; greater than 10000 µM in test [1]; 158 µM in test [2]; 69.2 µM in test [3]; 155 µM in test [4].

Take `CCCCCCCC(=O)O` [C8, caprylic acid]: the EC50 in test [5] is 1070 µM; in test [1] it was greater than 10000 µM; in test [2], greater than 10000 µM; in test [3] it was greater than 10000 µM; in test [4], 617 µM.

`CCCCCCCCC(=O)O` [C9, pelargonic acid]: the EC50 in test [1] is greater than 10000 µM; in test [2] it was greater than 10000 µM; in test [3], greater than 10000 µM; in test [4], 3390 µM.

Consider `CC/C=C/C(=O)O` [compound 22, trans-2-pentenoic acid], for which the concentration giving a half-maximal response (EC50) in test [5] is 33.1 µM; in test [4], 5.25 µM.

Take `CCC/C=C/C(=O)O` [compound 23, trans-2-hexenoic acid]: the concentration giving a half-maximal response (EC50) was 3.24 µM in test [5], greater than 10000 µM in test [1] and 3.98 µM in test [4].

For the compound `C=CC=CC(=O)O` [compound 24, 2,4-pentadienoic acid], the EC50 is 22.9 µM in test [5] and 10 µM in test [4].

As to `C/C=C/C=C/C(=O)O` [compound 25, 2,4-hexadienoic acid], the EC50 in test [6] is 3.47 µM; in test [5] it was 4.57 µM; in test [1], greater than 10000 µM; in test [4] it was 4.27 µM.

For `CC(=CC(=O)O)C(F)(F)F` [compound 26, 4,4,4-trifluoro-3-methyl-2-butenoic acid], the EC50 in test [5] was 257 µM; in test [1], greater than 10000 µM; in test [4], 12.9 µM.

With `O=C(O)C1=CCCC1` [compound 27, 1-cyclopentenecarboxylic acid], the EC50 was 83.2 µM in test [5], greater than 10000 µM in test [1] and 11 µM in test [4].

For the compound `O=C(O)/C=C/c1ccccc1` [compound 28, trans-cinnamic acid], the EC50 was 389 µM in test [5], greater than 10000 µM in test [1] and 174 µM in test [4].

Turning to `O=C(O)C1=CCCCC1` [compound 29, 1-cyclohexene-1-carboxylic acid], the EC50 was 158 µM in test [5], greater than 10000 µM in test [1] and 60.3 µM in test [4].

As a reminder, the EC50 is the concentration giving half of the maximal effect. Read a low EC50 as greater potency.
